We go through one molecule from paper PMC5218480 (PLoS ONE, 2017).

This assay deals with MV-4-11 cells. Kind of assay: Gene expression microarray analysis (Affymetrix PrimeView) and GSEA. The note with it: ProbeSet 11746640_a_at; LIST D. Type of assay: cell-based, human. Set-up: RFU PODN (11730768_x_at) / Fold change /veh PODN (11730768_x_at) / RFU LINC00158 (11744669_a_at) / Fold change /veh LINC00158 (11744669_a_at) / RFU DUSP10 (11751237_a_at) / Fold change /veh DUSP10 (11751237_a_at) / RFU ID3 (11757404_x_at) / Fold change /veh ID3 (11757404_x_at) / RFU PLEKHG5 (11737974_s_at) / Fold change /veh PLEKHG5 (11737974_s_at) / RFU LRRC4B (11730491_at) / Fold change /veh LRRC4B (11730491_at) / RFU GIMAP4 (11747438_a_at) / Fold change /veh GIMAP4 (11747438_a_at) / RFU KRT8 (11758183_x_at) / Fold change /veh KRT8 (11758183_x_at) / RFU CNN1 (11734310_a_at) / Fold change /veh CNN1 (11734310_a_at) / RFU VPS37D (11726825_at) / Fold change /veh VPS37D (11726825_at) / RFU C10orf10 (11716522_x_at) / Fold change /veh C10orf10 (11716522_x_at) / RFU KIR2DL2 /// KIR2DL4 /// KIR2DL5A /// KIR2DL5B /// KIR2DS1 /// KIR2DS2 /// KIR2DS3 /// KIR2DS4 /// KIR3DL3 /// KIR3DL3 /// KIR3DS1 (11738374_at) / Fold change /veh KIR2DL2 /// KIR2DL4 /// KIR2DL5A /// KIR2DL5B /// KIR2DS1 /// KIR2DS2 /// KIR2DS3 /// KIR2DS4 /// KIR3DL3 /// KIR3DL3 /// KIR3DS1 (11738374_at) / RFU C1QL1 (11718748_at) / Fold change /veh C1QL1 (11718748_at) / RFU TMPRSS4 (11747572_a_at) / Fold change /veh TMPRSS4 (11747572_a_at) / RFU HAMP (11756126_x_at) / Fold change /veh HAMP (11756126_x_at) / RFU RNFT2 (11725882_a_at) / Fold change /veh RNFT2 (11725882_a_at) / RFU NR4A2 (11747474_a_at) / Fold change /veh NR4A2 (11747474_a_at) / RFU ABCC12 (11746883_a_at) / Fold change /veh ABCC12 (11746883_a_at) / RFU TMEM136 (11760407_x_at) / Fold change /veh TMEM136 (11760407_x_at) / RFU CLDN22 /// WWC2 (11732394_at) / Fold change /veh CLDN22 /// WWC2 (11732394_at) / RFU HLA-DPB1 (11760878_x_at) / Fold change /veh HLA-DPB1 (11760878_x_at) / RFU SPINT1 (11716480_a_at) / Fold change /veh SPINT1 (11716480_a_at) / RFU GAP43 (11754022_s_at) / Fold change /veh GAP43 (11754022_s_at) / RFU A4GNT (11735810_at) / Fold change /veh A4GNT (11735810_at) / RFU PRB3 (11715151_x_at) / Fold change /veh PRB3 (11715151_x_at) / RFU TUBB4B (11761932_at) / Fold change /veh TUBB4B (11761932_at) / RFU CAPN14 (11732068_a_at) / Fold change /veh CAPN14 (11732068_a_at) / RFU TMCC2 (11721928_a_at) / Fold change /veh TMCC2 (11721928_a_at) / RFU IRGQ (11745062_a_at) / Fold change /veh IRGQ (11745062_a_at) / RFU FAM174B (11720279_a_at) / Fold change /veh FAM174B (11720279_a_at) / RFU TMPRSS4 (11748680_a_at) / Fold change /veh TMPRSS4 (11748680_a_at) / RFU FAM212B (11763350_a_at) / Fold change /veh FAM212B (11763350_a_at) / RFU PLEKHG5 (11743358_a_at) / Fold change /veh PLEKHG5 (11743358_a_at) / RFU ZSCAN30 (11745921_a_at) / Fold change /veh ZSCAN30 (11745921_a_at) / RFU CMKLR1 (11741424_a_at) / Fold change /veh CMKLR1 (11741424_a_at) / RFU LOC101060620 /// MAPK8IP1 (11723275_at) / Fold change /veh LOC101060620 /// MAPK8IP1 (11723275_at) / RFU SPTSSB (11747773_x_at) / Fold change /veh SPTSSB (11747773_x_at) / RFU PRSS12 (11739890_at) / Fold change /veh PRSS12 (11739890_at) / RFU BIN1 (11741810_x_at) / Fold change /veh BIN1 (11741810_x_at) / RFU WNT11 (11732464_a_at) / Fold change /veh WNT11 (11732464_a_at) / RFU C10orf10 (11716521_a_at) / Fold change /veh C10orf10 (11716521_a_at) / RFU C5orf56 (11738089_at) / Fold change /veh C5orf56 (11738089_at) / RFU CYB561 (11721691_x_at) / Fold change /veh CYB561 (11721691_x_at) / RFU ANKRD19P (11752326_a_at) / Fold change /veh ANKRD19P (11752326_a_at) / RFU OR2T12 /// OR2T33 /// OR2T8 (11738714_s_at) / Fold change /veh OR2T12 /// OR2T33 /// OR2T8 (11738714_s_at) / RFU VCAN (11748164_a_at) / Fold change /veh VCAN (11748164_a_at) / RFU JSRP1 (11732532_at) / Fold change /veh JSRP1 (11732532_at) / RFU KRTAP10-11 (11738290_x_at) / Fold change /veh KRTAP10-11 (11738290_x_at) / RFU MYO3A (11730013_a_at) / Fold change /veh MYO3A (11730013_a_at) / RFU EBF3 (11725865_a_at) / Fold change /veh EBF3 (11725865_a_at) / RFU CAMK2N1 (11719241_x_at) / Fold change /veh CAMK2N1 (11719241_x_at) / RFU C5orf56 (11738088_a_at) / Fold change /veh C5orf56 (11738088_a_at) / RFU OLFML3 (11715873_a_at) / Fold change /veh OLFML3 (11715873_a_at) / RFU LOC100653217 /// NTM (11731650_a_at) / Fold change /veh LOC100653217 /// NTM (11731650_a_at) / RFU MAPK11 (11762145_a_at) / Fold change /veh MAPK11 (11762145_a_at) / RFU FIZ1 (11724087_x_at) / Fold change /veh FIZ1 (11724087_x_at) / RFU OASL (11726364_x_at) / Fold change /veh OASL (11726364_x_at) / RFU SOX15 (11748057_x_at) / Fold change /veh SOX15 (11748057_x_at) / RFU CD79A (11719716_a_at) / Fold change /veh CD79A (11719716_a_at) / RFU HIST1H1D (11736915_at) / Fold change /veh HIST1H1D (11736915_at) / RFU CASKIN2 (11723855_a_at) / Fold change /veh CASKIN2 (11723855_a_at) / RFU LOC730098 (11760151_x_at) / Fold change /veh LOC730098 (11760151_x_at) / RFU OR4N2 (11742367_at) / Fold change /veh OR4N2 (11742367_at) / RFU PRRT2 (11749266_a_at) / Fold change /veh PRRT2 (11749266_a_at) / RFU SNX32 (11753110_a_at) / Fold change /veh SNX32 (11753110_a_at) / RFU CDHR5 (11726645_a_at) / Fold change /veh CDHR5 (11726645_a_at) / RFU RCAN1 (11760418_a_at) / Fold change /veh RCAN1 (11760418_a_at) / RFU FAM167A (11723789_a_at) / Fold change /veh FAM167A (11723789_a_at) / RFU FAM26E (11764081_at) / Fold change /veh FAM26E (11764081_at) / RFU ISYNA1 (11749810_s_at) / Fold change /veh ISYNA1 (11749810_s_at) / RFU ACY1 (11761880_at) / Fold change /veh ACY1 (11761880_at) / RFU 11764098_at / Fold change /veh 11764098_at / RFU SAMD14 (11745864_x_at) / Fold change /veh SAMD14 (11745864_x_at) / RFU NPB (11741838_a_at) / Fold change /veh NPB (11741838_a_at) / RFU TMPRSS6 (11731388_a_at) / Fold change /veh TMPRSS6 (11731388_a_at) / RFU KRTAP10-2 (11738614_at) / Fold change /veh KRTAP10-2 (11738614_at) / RFU ARHGAP8 /// PRR5-ARHGAP8 (11727945_x_at) / Fold change /veh ARHGAP8 /// PRR5-ARHGAP8 (11727945_x_at) / RFU KRTAP5-7 /// NADSYN1 (11734609_at) / Fold change /veh KRTAP5-7 /// NADSYN1 (11734609_at) / RFU RASL12 (11751679_a_at) / Fold change /veh RASL12 (11751679_a_at) / RFU CDKN2B (11736163_a_at) / Fold change /veh CDKN2B (11736163_a_at) / RFU PRF1 (11729649_at) / Fold change /veh PRF1 (11729649_at) / RFU, ZNF638 /// ZNF638-IT1 / Fold change vs veh, ZNF638 /// ZNF638-IT1 / RFU, PANK3 / Fold change vs veh, PANK3 / RFU, SH3YL1 / Fold change vs veh, SH3YL1 / RFU, ZEB2 / Fold change vs veh, ZEB2 / RFU, NRIP1 / Fold change vs veh, NRIP1 / RFU, PTTG1IP / Fold change vs veh, PTTG1IP / RFU, CAPN2 / Fold change vs veh, CAPN2 / RFU, MED14 / Fold change vs veh, MED14 / RFU, SNORA58 / Fold change vs veh, SNORA58 / RFU, C1orf63 / Fold change vs veh, C1orf63 / RFU, LRRFIP1 / Fold change vs veh, LRRFIP1 / RFU, NDUFAF7 / Fold change vs veh, NDUFAF7 / RFU, SLC12A2 / Fold change vs veh, SLC12A2 / RFU, IBTK / Fold change vs veh, IBTK / RFU, ESF1 / Fold change vs veh, ESF1 / Fold change vs veh, TMEM50B / RFU, TAOK1 / Fold change vs veh, TAOK1 / RFU, ACBD3 / Fold change vs veh, ACBD3 / RFU, TMA16 / Fold change vs veh, TMA16 / RFU, RWDD3 / Fold change vs veh, RWDD3 / RFU, BCAT1 / Fold change vs veh, BCAT1 / RFU, EDEM3 / Fold change vs veh, EDEM3 / RFU, TMEM33 / Fold change vs veh, TMEM33 / RFU, WDR75 / Fold change vs veh, WDR75 / RFU, AHCTF1 / Fold change vs veh, AHCTF1 / RFU, TFRC / Fold change vs veh, TFRC / RFU, ZDHHC17 / Fold change vs veh, ZDHHC17 / RFU, NOM1 / Fold change vs veh, NOM1 / RFU, ARL8B / Fold change vs veh, ARL8B / RFU, ZBTB11 / Fold change vs veh, ZBTB11 / RFU, TAMM41 / Fold change vs veh, TAMM41 / RFU, KIAA1704 /// LOC100996395 / Fold change vs veh, KIAA1704 /// LOC100996395 / RFU, ING1 / Fold change vs veh, ING1 / RFU, TRMT61B / Fold change vs veh, TRMT61B / RFU, FUBP3 / Fold change vs veh, FUBP3 / RFU, TP53 / Fold change vs veh, TP53 / RFU, TNKS2 / Fold change vs veh, TNKS2 / RFU, ZFP14 / Fold change vs veh, ZFP14 / RFU, ACTR2 / Fold change vs veh, ACTR2 / RFU, PPP3R1 / Fold change vs veh, PPP3R1 / RFU, PIK3R1 / Fold change vs veh, PIK3R1 / RFU, HNRNPA1 / Fold change vs veh, HNRNPA1 / RFU, RNF170 / Fold change vs veh, RNF170 / RFU, ZNF28 / Fold change vs veh, ZNF28 / RFU, RNGTT / Fold change vs veh, RNGTT / RFU, OGT / Fold change vs veh, OGT / RFU, BRD1 / Fold change vs veh, BRD1 / RFU, MARS / Fold change vs veh, MARS / RFU, ZNF655 / Fold change vs veh, ZNF655 / RFU, FAHD1 / Fold change vs veh, FAHD1 / RFU, BDP1 / Fold change vs veh, BDP1 / RFU, LRRCC1 / Fold change vs veh, LRRCC1 / RFU, ARID1A / Fold change vs veh, ARID1A / RFU, ZNF146 / Fold change vs veh, ZNF146 / RFU, ZNF330 / Fold change vs veh, ZNF330 / RFU, GPN3 / Fold change vs veh, GPN3 / RFU, C9orf123 / Fold change vs veh, C9orf123 / RFU, N4BP2L2 / Fold change vs veh, N4BP2L2 / RFU, ARFIP1 / Fold change vs veh, ARFIP1 / RFU, FAM179B / Fold change vs veh, FAM179B / RFU, BCL10 / Fold change vs veh, BCL10 / RFU, UHRF1BP1L / Fold change vs veh, UHRF1BP1L / RFU, BET1 / Fold change vs veh, BET1 / RFU, CNOT2 / Fold change vs veh, CNOT2 / RFU, ZNF268 / Fold change vs veh, ZNF268 / Fold change vs veh, ZNF507 / RFU, DGCR2 / Fold change vs veh, DGCR2 / RFU, WDSUB1 / Fold change vs veh, WDSUB1 / Fold change vs veh, HSP90B1 /// MIR3652 / RFU, ADSS / Fold change vs veh, ADSS / RFU, GK / Fold change vs veh, GK / RFU, ZNF148 / Fold change vs veh, ZNF148 / RFU, TAF9 / Fold change vs veh, TAF9 / RFU, SLC1A5 / Fold change vs veh, SLC1A5 / RFU, SLMO2 / Fold change vs veh, SLMO2 / RFU, ABCC4 / Fold change vs veh, ABCC4 / RFU, LOC101060439 /// RAP1B / Fold change vs veh, LOC101060439 /// RAP1B / RFU, RFX7 / Fold change vs veh, RFX7 / RFU, GTPBP10 / Fold change vs veh, GTPBP10 / RFU, CNEP1R1 / Fold change vs veh, CNEP1R1 / RFU, BIVM-ERCC5 /// ERCC5 / Fold change vs veh, BIVM-ERCC5 /// ERCC5 / RFU, ILF3 / Fold change vs veh, ILF3 / RFU 11762660_at / Fold change /veh 11762660_at / RFU VCAN (11757783_s_at) / Fold change /veh VCAN (11757783_s_at) / RFU DDX43 (11728927_at) / Fold change /veh DDX43 (11728927_at) / RFU KRT8 (11758188_x_at) / Fold change /veh KRT8 (11758188_x_at) / RFU NKD1 (11759106_at) / Fold change /veh NKD1 (11759106_at) / RFU SRD5A1 (11742802_a_at) / Fold change /veh SRD5A1 (11742802_a_at) / RFU TPSAB1 /// TPSB2 (11721975_s_at) / Fold change /veh TPSAB1 /// TPSB2 (11721975_s_at) / RFU GSTM3 (11746129_a_at) / Fold change /veh GSTM3 (11746129_a_at) / RFU IL23R (11737362_x_at) / Fold change /veh IL23R (11737362_x_at) / RFU TMEM51 (11727254_a_at) / Fold change /veh TMEM51 (11727254_a_at) / RFU PIWIL2 (11732686_x_at) / Fold change /veh PIWIL2 (11732686_x_at) / RFU ORM1 (11744905_x_at) / Fold change /veh ORM1 (11744905_x_at) / RFU CCDC152 (11743942_at) / Fold change /veh CCDC152 (11743942_at) / RFU ECM1 (11717891_a_at) / Fold change /veh ECM1 (11717891_a_at) / RFU IL23R (11748794_a_at) / Fold change /veh IL23R (11748794_a_at) / RFU TNFAIP8L3 (11732012_x_at) / Fold change /veh TNFAIP8L3 (11732012_x_at) / RFU MBOAT4 (11741988_at) / Fold change /veh MBOAT4 (11741988_at) / RFU 11764193_at / Fold change /veh 11764193_at / RFU TMEM53 (11763286_at) / Fold change /veh TMEM53 (11763286_at) / RFU MAGEB2 (11727129_at) / Fold change /veh MAGEB2 (11727129_at) / RFU TMEM200A (11744735_a_at) / Fold change /veh TMEM200A (11744735_a_at) / RFU CCDC152 (11751479_a_at) / Fold change /veh CCDC152 (11751479_a_at) / RFU FAM211A (11726209_a_at) / Fold change /veh FAM211A (11726209_a_at) / RFU RGS16 (11746705_a_at) / Fold change /veh RGS16 (11746705_a_at) / RFU VCAN (11755009_s_at) / Fold change /veh VCAN (11755009_s_at) / RFU RHOB (11743442_s_at) / Fold change /veh RHOB (11743442_s_at) / RFU RGS16 (11720943_a_at) / Fold change /veh RGS16 (11720943_a_at) / RFU RGS16 (11720944_at) / Fold change /veh RGS16 (11720944_at) / RFU, VPS4B / Fold change vs veh, VPS4B / RFU, CREB1 / Fold change vs veh, CREB1 / RFU, DNAJC13 / Fold change vs veh, DNAJC13 / RFU, GNAQ / Fold change vs veh, GNAQ / RFU, CDK5R1 / Fold change vs veh, CDK5R1 / RFU, ZRANB3 / Fold change vs veh, ZRANB3 / RFU, CUL4A / Fold change vs veh, CUL4A / RFU, CCNY / Fold change vs veh, CCNY / RFU, UFL1 / Fold change vs veh, UFL1 / RFU, COG3 / Fold change vs veh, COG3 / RFU, DIAPH2 / Fold change vs veh, DIAPH2 / RFU, SKA2 / Fold change vs veh, SKA2 / RFU, AFF3 / Fold change vs veh, AFF3 / RFU, LMF1 / Fold change vs veh, LMF1 / RFU, IPO11 / Fold change vs veh, IPO11 / RFU, DFFB / Fold change vs veh, DFFB / RFU, FOXP1 / Fold change vs veh, FOXP1 / RFU, CARD8 / Fold change vs veh, CARD8 / RFU, STRN3 / Fold change vs veh, STRN3 / RFU, ADK / Fold change vs veh, ADK / RFU, RASSF2 / Fold change vs veh, RASSF2 / RFU, WIPF1 / Fold change vs veh, WIPF1 / RFU, LARP1B / Fold change vs veh, LARP1B / RFU, RASA1 / Fold change vs veh, RASA1 / RFU, RB1 / Fold change vs veh, RB1 / RFU, PPFIA1 / Fold change vs veh, PPFIA1 / RFU, MAT2A / Fold change vs veh, MAT2A / RFU, CCT5 / Fold change vs veh, CCT5 / RFU, WDR92 / Fold change vs veh, WDR92 / RFU, CUX1 / Fold change vs veh, CUX1 / RFU, TTC7A / Fold change vs veh, TTC7A / RFU, TMEM135 / Fold change vs veh, TMEM135 / RFU, DEPTOR / Fold change vs veh, DEPTOR / RFU, CPM / Fold change vs veh, CPM / RFU, DNAJB6 / Fold change vs veh, DNAJB6 / RFU, CACNA2D3 / Fold change vs veh, CACNA2D3 / RFU, DTX4 / Fold change vs veh, DTX4 / RFU, TFCP2 / Fold change vs veh, TFCP2 / RFU, GMCL1 /// GMCL1P1 / Fold change vs veh, GMCL1 /// GMCL1P1 / RFU, AEBP2 / Fold change vs veh, AEBP2 / RFU, SNHG1 /// SNORD22 /// SNORD25 /// SNORD26 /// SNORD27 /// SNORD28 /// SNORD29 /// SNORD31 / Fold change vs veh, SNHG1 /// SNORD22 /// SNORD25 /// SNORD26 /// SNORD27 /// SNORD28 /// SNORD29 /// SNORD31 / Fold change (Aza/veh), C12orf56 (ProbeSet 11735607_a_at) / Fold change (ACY-1035/veh), C12orf56 (ProbeSet 11735607_a_at) / Fold change (Aza/veh), FGFR1OP (ProbeSet 11751329_s_at) / Fold change (ACY-1035/veh), FGFR1OP (ProbeSet 11751329_s_at) / Fold change (Aza/veh), VPS36 (ProbeSet 11739960_a_at) / Fold change (ACY-1035/veh), VPS36 (ProbeSet 11739960_a_at) / RFU SYPL1 (11715823_x_at) / Fold change /veh SYPL1 (11715823_x_at) / RFU IGFBP7 (11715501_s_at) / Fold change /veh IGFBP7 (11715501_s_at) / RFU REEP3 (11722064_at) / Fold change /veh REEP3 (11722064_at) / RFU IGLL1 (11728026_x_at) / Fold change /veh IGLL1 (11728026_x_at): dose or concentration left out as unconfirmed.

The structures appear in SMILES notation.

As to `Nc1ccc(-c2cccs2)cc1NC(=O)c1ccc2c(c1)cc(C1CC1)n2CCN1CCOCC1` [ACY-1035], the “Fold change vs veh, RASSF2” value stood at 0.86.
